Data reported in patent US8518460B2, “Use of total coumarins of cnidium fruit in preparing medicaments for treating psoriasis” (priority 2002, dated 2013).

System: swelling of rat toes induced by egg-white
Experiment: Swelling of rat toes induced by egg-white injection
Format: in vivo, rats
Conditions: 0.3 g ointment per toe, repeated after 0.5 hour
Procedure: 50 SD rats, 150 g±10 g, were divided randomly into five groups. The volume of the toes at the same side of rats among the 5 groups was measured. 10% of egg white was injected into the toes, 0.2 ml each toe. After that, rats of two groups were anointed respectively with 0.15 g and 0.3 g of an ointment of total coumarins (containing 10% total coumarins) at each toe. Rats of other two groups were respectively anointed with 0.3 g of a blank ointment and 0.3 g of an ointment of anthralin at each toe. The rest one group was treated nothing as a control. 0.5 hour later, the above treatment was repeated. At 1st, 2nd, 4th, and 6th hour the volume of the toes were measured. The difference of the volume was regarded as the degree of the swelling of the toes.

O=C1c2c(O)cccc2Cc2cccc(O)c21 [Anthralin, anthralin]
Degree of toe swelling (volume increase) (1 h): 0.408 ± 0.201 mL
Degree of toe swelling (volume increase) (2 h): 0.391 ± 0.209 mL
Degree of toe swelling (volume increase) (4 h): 0.375 ± 0.189 mL
Degree of toe swelling (volume increase) (6 h): 0.351 ± 0.165 mL
